Measured values as given in US7371365B2, “Methods for detecting parenchymal plaques in vivo” (Mayo Foundation for Medical Education and Research, priority 2000, dated 2008).

How the values were obtained:
[1] = system: β-amyloid plaques; experiment: MRI (7 Tesla, T2W/T1W) of post-mortem brain with thioflavin S histologic correlation after IV injection of probe in mice; assay type: in vivo, APP-PS1 transgenic mice; settings: for T1 plaque enhancement on T1W images / accelerated T2 relaxation on T2W images: APP-PS1 transgenic mouse, four hours
[2] = system: amyloid deposits in AD temporal lobe cortex sections; experiment: Labeling of amyloid deposits in vitro in AD temporal lobe cortex sections (film and emulsion autoradiography); assay type: binding, human; settings: for specificity of binding for type of amyloid deposit: AD temporal lobe cortex sections in vitro
Method: The sections were washed with TBS, pH 7.0 four times and then rinsed briefly with distilled water twice. The sections were allowed to air dry overnight in a box with desiccant at 4° C.
Sections then underwent immunohistochemistry (IH) for amyloid using an anti-Aβ monoclonal mouse antibody (4G8, Senetek). Untreated sections were included as a positive control for antibody staining. After rehydrating with TBS, pH 7.6, the sections were fixed briefly with neutral-buffered, 10% formalin for 3 minutes. The sections were washed with TBS and then blocked with 1.5% normal horse serum in TBS for 30 minutes. The sections were incubated with the anti-Aβ primary antibody at a dilution of 1:1000 in 0.1% BSA/TBS overnight at 4° C. The primary antibody was then visualized using a Vectastain Elite ABC, immunoperoxidase kit with diaminobenzidine (DAB) as a substrate according to the instructions (Vector Laboratories). The sections were allowed to air dry overnight in a box with desiccant at 4° C.
FIGS. 2A-2B are the film autoradiographs. Note the presence of punctate areas of exposed film located predominantly in the regions corresponding to gray matter. This is similar to the distribution of amyloid deposits seen following IH of the tissue sections. It was possible to overlay the two for direct correspondence under the microscope.
In order to definitively correlate the IH with the iodinated peptide by colocalization, the sections were next dipped in an autoradiographic emulsion (Type NTB-3, Kodak). The slides were dipped in emulsion at 43° C. under Safelight illumination in a darkroom. The slides were chilled to solidify the emulsion and then allowed to air dry at room temperature for 3 hours in a light-proof box. The slides were exposed at 4° C. in a light-proof box with desiccant. The slides were developed with Dektol developer (Kodak) and fixed (Kodak) according to the instructions. The sections were dehydrated with successive changes of ethanol and xylene and then coverslipped with a xylene-based mounting media (CMS).

[3] = system: parenchymal amyloid deposits; experiment: Labeling of amyloid deposits in vivo after i.v. injection in APP, PS1 transgenic mice; settings: 200 μg i.v., four hours, emulsion autoradiography, PS1 transgenic mice 27 weeks of age
Chain of parenchymal amyloid deposits (P05067 672-711 limits assumed): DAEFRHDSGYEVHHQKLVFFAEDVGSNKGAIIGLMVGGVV
Text: These mice develop amyloid deposits and behavioral deficits within 12 weeks of age. Hemizygous transgenic mice (Tg2576) expressing mutant human amyloid precursor protein (APP695) were mated with a second strain of hemizygous transgenic mice (M146L5.1) expressing mutant human presenilin 1 (PS1). Holcomb, L., et al., Nature Med. 4:97-100 (1998). The animals were genotyped for the expression of both transgenes by a dot blot method using a sample of mouse tail DNA. The mice were housed in a virus-free barrier facility under a 12-hour light/dark cycle, with ad lib access to food and water.
After four hours, each animal was perfused with PBS and fixed with neutral-buffered, 10% formalin following an overdose with sodium pentobarbital (75 mg/kg, i.p.). After cryoprotecting in 10% and 30% sucrose in PBS, frozen sections of each brain were cut with a freezing microtome and then processed with anti-Aβ IH and emulsion autoradiography for the presence of radiolabeled amyloid deposits using the same methods described above for the human AD sections.

[4] = in vivo, iv; cited from earlier work
[5] = system: BBB; settings: mouse, in vivo
Method: PS and Vp Determination in Mice. […] Blood was sampled from the femoral artery at several intervals during the next 15 minutes. Whole blood was sampled directly, using heparinized micro-hematocrit capillary tubes and TCA extracted. The supernatant was separated from the pellet and both were counted in a gamma counter. The radioactivity in the pellet was expressed as a percentage of the total radioactivity found in both the pellet and supernatant. An aliquot of the peptide labeled with ^131I was then injected into the femoral vein 15 seconds prior to sacrifice of the animal to serve as a measure of residual plasma volume (Vp; μl/g). After collection of the final blood sample, the anesthetized animal was sacrificed. […] The permeability coefficient x surface area products (PS; 10^−6 ml/g/s) were then calculated using the Vp as a measure of residual plasma volume based on equations that have been discussed in detail elsewhere (Poduslo and Curran, supra (1996a); Poduslo and Curran, supra (1996b); Wengenack, et al., supra (1997); Poduslo, et al., supra (1998); Poduslo, et al., supra (2000); Poduslo, et al., supra (2001). Statistical evaluations of PS and Vp were performed using ANOVA followed by Bonferroni multiple comparisons.

[6] = system: β-amyloid plaques in human AD brain sections; experiment: Labeling of AD amyloid plaques in vitro with putrescine- and gadolinium-labeled Aβ; assay type: binding; settings: equal amounts of radioactivity
Text: Labeling of AD Amyloid Plaques In Vitro with Putrescine- and Gadolinium-Labeled Aβ. […] The slides were dipped in emulsion, exposed, and developed according to the instructions. The sections were dehydrated with successive changes of ethanol and xylene and then coverslipped.

[7] = system: BBB; assay type: in vivo, Sprague-Dawley rats; settings: rat
Method: Poduslo, J. F. and Curran, G. L., Proc. Natl. Acad. Sci. USA 89:2218-2222 (1992); Poduslo, J. F. and Curran, G. L., Molec. Brain Res. 23:157-162 (1994); and Poduslo, J. F., et al., Proc. Natl. Acad. Sci. USA 9:5705-5709 (1994). Putrescine modification of synthetic human Aβ1-40 was performed by covalent linkage of the polyamine to carboxylic acid groups using carbodiimide at a pH of 6.7. Poduslo, J. F. and Curran, G. L., J. Neurochem. 66:1599-1609 (1996); and Poduslo, J. F. and Curran, G. L., J. Neurochem.
PS and Vp values were determined in normal adult male Sprague-Dawley rats (400-450 g) obtained from Harlan. […] Blood (200 μl) was sampled from the brachial artery at several intervals during the next 15 minutes.

Compound | T1 plaque enhancement on T1W images ([1]; IV injection) | accelerated T2 relaxation on T2W images ([1]; IV injection) | specificity of binding for type of amyloid deposit [2] | labeling of parenchymal amyloid deposits in vivo [3] | amount of radiolabeled peptide present in PBS-perfused brain [4] [%] | exposure time required for detection of plaque binding (emulsion autoradiography) [6] | further results
O=C([O-])CN(CCN(CC(=O)[O-])CC(=O)O)CCN(CC(=O)[O-])CC(=O)O.[Gd+3] [Gd-DTPA, gadolinium diethylenetriaminepentaacetic acid, reference compound] | No evidence of T1 plaque enhancement | expected focal areas of T2 acceleration that corresponded to plaques | – | – | – | – | –
NCCCCN [putrescine, reference compound] | – | – | – | – | – | – | effect of unbound putrescine on binding of iodinated peptide to amyloid deposits ([2]; 10-fold excess unbound putrescine, 100 pM 125I-Aβ1-40 or 125I-PUT-Aβ1-40): no appreciable effect on binding of iodinated peptide
Aβ 1-40: synthetic human amyloid β peptide 1-40, native (unmodified); radioiodinated for the measurements [reference compound] | – | – | specific for dense-core, neuritic-type amyloid deposits | did not exhibit labeling of any parenchymal amyloid deposits | 0.03 | – | –
Gd-Aβ: Aβ (1-40) with DTPA chelating arm at the amino terminus, chelated with gadolinium; Aβ to Gd 1:1 | no significant plaque enhancement | accelerated T2 relaxation was observed in plaques | – | – | – | nine | effect of gadolinium labeling of Aβ on the PS value [5]: decrease in the PS value in five of the six brain regions, however, this was of non-significant magnitude
PUT Aβ 1-40: synthetic human Aβ1-40 with putrescine covalently linked to carboxylic acid groups using carbodiimide; radioiodinated for the measurements | – | – | specific for dense-core, neuritic-type amyloid deposits | able to cross the BBB and bind to amyloid deposits in vivo | 0.35 | – | increase of permeability at the blood brain barrier by putrescine modification [7]: two-fold; density of exposed silver grains on amyloid deposits (emulsion autoradiography) ([2]; equal amounts of radioactivity and exposure time (6 days), versus 125I-Aβ1-40): higher density of silver grains
putrescine-gadolinium-amyloid-β peptide [PUT-Gd-Aβ] | many focal areas of accelerated T1 relaxation visible as bright spots | Numerous focal areas of accelerated T2 relaxation | – | – | – | one | T1 CNR (contrast-to-noise ratio) ([1]; APP-PS1 mice, IV injection, T1W MRI, mean ± SEM, n = 15 plaques): 7.13 ± 1.03; T1 PBR (plaque-to-background voxel intensity ratio) ([1]; APP-PS1 mice, IV injection, T1W MRI, mean ± SEM, n = 15 plaques, maximum intensity): 1.24 ± 0.04; T2 CNR (contrast-to-noise ratio) ([1]; APP-PS1 mice, IV injection, T2W MRI, mean ± SEM, n = 15 plaques): −8.95; T2 PBR (plaque-to-background voxel intensity ratio) ([1]; APP-PS1 mice, IV injection, T2W MRI, mean ± SEM, n = 15 plaques, minimum intensity): 0.29 ± 0.03; fold increase of T1 CNR in injected mice ([1]; APP-PS1 mice, T1 images): 4.2-9.4 fold; fold increase of T1 PBR in injected mice ([1]; APP-PS1 mice, T1 images): 1.2 fold; cortical tissue volume occupied by enhanced plaque ([1]; APP-PS1 mouse, T1W, interpretation of pixel proportion): roughly 10%; proportion of pixels within cortical ROI whose intensity exceeded the 4-S.D. threshold ([1]; APP-PS1 mouse, T1W, mean (±S.D.) across 10 images, 812.5×812.5 μm ROI): 9.9%; MRI features in non-transgenic mouse (focal areas of accelerated T1 relaxation) ([1]; non-transgenic mouse, compared with PBS-injected non-transgenic mouse (no focal T1 areas)): yielded the same results
